In brackets after ≈: the same amount, converted by molar mass. Read-outs that look alike come from different tables or passages of the source.
Experiments:
[1] = Solubility of crystalline modifications of Febuxostat in phosphate buffer; assay type: physicochemical
[2] = In-vitro dissolution of tablets, Ph. Eur. 2.9.3 / USP <711> Method 2 (Paddle Apparatus); assay type: physicochemical; settings: Figures 2 and 3; same excipient mixture as example 1
Experimental: The in-vitro dissolution of tablets according to examples 2 to 5 were analyzed according to Ph. […]

Structure (SMILES) | Solubility ([1]; n=3) | influence on dissolution profile of interchange of crystalline form F10 by another crystalline form [2] | Solubility ([1]; aqueous buffer, n=3, read-out: Solubility) [µg/mL]
Cc1nc(-c2ccc(OCC(C)C)c(C#N)c2)sc1C(=O)O [Form "G", 2-[3-cyano-4-(2-methylpropoxy)phenyl]-4-methylthiazole-5-carboxylic acid] | 0,13 mg/ml | does not influence the dissolution profile significantly | –
Cc1nc(-c2ccc(OCC(C)C)c(C#N)c2)sc1C(=O)O [Form "A", 2-[3-cyano-4-(2-methylpropoxy)phenyl]-4-methylthiazole-5-carboxylic acid] | 0,10 mg/ml | does not influence the dissolution profile significantly | –
Cc1nc(-c2ccc(OCC(C)C)c(C#N)c2)sc1C(=O)O [Form "II", 2-[3-cyano-4-(2-methylpropoxy)phenyl]-4-methylthiazole-5-carboxylic acid] | 0,36 mg/ml | does not influence the dissolution profile significantly | –
Cc1nc(-c2ccc(OCC(C)C)c(C#N)c2)sc1C(=O)O [Form "F10", 2-[3-cyano-4-(2-methylpropoxy)phenyl]-4-methylthiazole-5-carboxylic acid] | – | – | 260 (≈ 822 µM)

Reference: EP3002006A1, “Pharmaceutical composition capable for the incorporation Febuxostat in the crystalline modifications F10, II, G and A” (Bluepharma - Industria Farmacêutica, S.A., priority 2014, dated 2016)
